Measurements from publication PMC12024213, “Mechanism Insight of Cell Death Signaling by Thymol Derivatives on Trypanosomatidae Protozoan Parasites” (Antibiotics, 2025).
≈ marks a conversion by molar mass, not a printed value. Like-named read-outs stand apart in the source and are kept apart here.

What was measured:
[1] = Cytotoxicity assay on murine macrophages (alamarBlue); assay type: cell-based; settings: mouse, mean ± SD
Description: (§1) Cytotoxicity effect of the tested derivatives was conducted using macrophages of the murine cell line J774.A1 (American Type Culture Collection #TIB-67, city, country), as previously described. The cells were maintained in DMEM at 37 °C in a 5% CO2 humidified incubator. All the plates containing alamarBlue® were analyzed using a plate reader EnSpire Multimode Plate Reader® at excitation and emission wavelengths of 570 and 585 nm, respectively (PerkinElmer, ThermoFisher Scientific, Madrid, Spain). The IC50 (concentrations able to inhibit 50% of parasites), IC90 (concentrations able to inhibit 90% of parasites), and CC50 (concentration able to inhibit 50% of murine macrophages) values were determined for each compound by nonlinear regression using GraphPad software.

[2] = alamarBlue assay on L. amazonensis promastigotes; assay type: cell-based, Leishmania amazonensis; settings: mouse; CC50 J774.A1 / IC50 L. amazonensis promastigotes; read-out: Selectivity Leishmania SI (CC50/IC50)
Description: (§2) The assay was conducted using the alamarBlue® method as previously described. Briefly, promastigotes of L. amazonensis were grown at 26 °C in Schneider’s medium (US Biological, Life sciences) and supplemented with 10% heat-inactivated fetal bovine serum and 0.04% of sodium bicarbonate. In a 96-well microtiter plates (Corning™, Corning, NY, USA) a serial dilutions of thymol derivatives were first prepared, and later, 10^6 parasites/mL were added into each well. Subsequently, 10% of alamarBlue® was added to the entire plate. The plates were incubated for 72 h at 26 °C.
as §1

[3] = test system: L. amazonensis promastigotes; test: alamarBlue assay on L. amazonensis promastigotes; assay type: cell-based, Leishmania amazonensis; settings: mean ± SD, triplicates
Description: as §2, §1

[4] = test system: T. cruzi epimastigotes; test: alamarBlue assay on T. cruzi epimastigotes; assay type: cell-based, Trypanosoma cruzi; settings: mean ± SD, triplicates
Description: (§3) In a 96-well plate, a serial dilution of the tested derivatives was performed in liver infusion tryptose medium supplemented with 10% heat inactivated fetal bovine serum. Later, 100 µL of 5 × 10^5 cells/mL of epimastigotes was added to each well. Afterwards, 20 µL of alamarBlue® was added to each well, and the plate was maintained at 26 °C for 72 h.
as §1

[5] = alamarBlue assay on T. cruzi epimastigotes; assay type: cell-based, Trypanosoma cruzi; settings: mouse; CC50 J774.A1 / IC50 T. cruzi epimastigotes; read-out: Selectivity Trypanosoma SI (CC50/IC50)
Description: as §3, §1

[6] = test system: promastigote stage of L. infantum and L. chagasi; design: method as in PMID 25281268; settings: cited from earlier work
[7] = test system: amastigote stage of L. infantum and L. chagasi; design: method as in PMID 25281268; settings: cited from earlier work
[8] = test system: intramacrophage L. amazonensis; test: Intramacrophagic stage assay, L. amazonensis in J774.A1 macrophages; assay type: cell-based, Leishmania amazonensis; settings: Leishmania amazonensis; intramacrophage stage in J774.A1, 24 h treatment; mean ± SD; read-out: L. amazonensis Intracellular IC50
Description: (§4) Briefly, in a 96-well plate, macrophages from the J774.A1 cell line were seeded at a final concentration of 2 × 10^5 cells/mL in Dulbecco’s Modified Eagle Medium (DMEM) and maintained at 37 °C in a 5% CO2 atmosphere until fully adhesion. […] After infection, plates were washed using DMEM to eliminate external parasites. Subsequently, infected macrophages were treated with different concentrations of active compounds for 24 h. Later, macrophages were lysed using 30 μL of medium, Schneider for Leishmania, and in liver infusion tryptose for Trypanosoma, containing 0.05% of sodium dodecyl sulfate (SDS) for 30 s under agitation. Afterwards, 170 μL of the appropriated medium was derivatives added to each well to give a final volume of 200 μL. Subsequently, 10% of alamarBlue® was added into each well and the plate was incubated at 26 °C for 72 h. Cytotoxicity effect of the tested derivatives was conducted using macrophages of the murine cell line J774.A1 (American Type Culture Collection #TIB-67, city, country), as previously described. The cells were maintained in DMEM at 37 °C in a 5% CO2 humidified incubator.

[9] = as above; assay type: cell-based, Leishmania amazonensis; settings: mouse; CC50 J774.A1 / IC50 intracellular L. amazonensis; read-out: Selectivity Leishmania SI (CC50/IC50)
Description: as §4

[10] = Intramacrophagic stage assay, T. cruzi in J774.A1 macrophages; assay type: cell-based, Trypanosoma cruzi; settings: mouse; CC50 J774.A1 / IC50 intracellular T. cruzi; read-out: Selectivity Trypanosoma SI (CC50/IC50)
Description: (§5) Briefly, in a 96-well plate, macrophages from the J774.A1 cell line were seeded at a final concentration of 2 × 10^5 cells/mL in Dulbecco’s Modified Eagle Medium (DMEM) and maintained at 37 °C in a 5% CO2 atmosphere until fully adhesion. Cells were infected either with L. amazonensis promastigotes (at a ratio of 1:10) or epimastigotes of T. cruzi (at a ratio of 1:7) (macrophage: parasite) and incubated at 37 °C in 5% CO2 for 24 h for Leishmania and 48 h for Trypanosoma. After infection, plates were washed using DMEM to eliminate external parasites. Subsequently, infected macrophages were treated with different concentrations of active compounds for 24 h. Later, macrophages were lysed using 30 μL of medium, Schneider for Leishmania, and in liver infusion tryptose for Trypanosoma, containing 0.05% of sodium dodecyl sulfate (SDS) for 30 s under agitation. Afterwards, 170 μL of the appropriated medium was derivatives added to each well to give a final volume of 200 μL. Subsequently, 10% of alamarBlue® was added into each well and the plate was incubated at 26 °C for 72 h.
as §1

[11] = test system: intramacrophage T. cruzi; test: as above; assay type: cell-based, Trypanosoma cruzi; settings: Trypanosoma cruzi; intramacrophage stage in J774.A1, 24 h treatment; mean ± SD; read-out: T. cruzi Intracellular IC50
Description: as §5, §1

[12] = test system: promastigote stage of L. major; design: method as in PMID 37595813; settings: cited from earlier work
[13] = test system: L. infantum; design: method as in PMID 31151304; settings: cited from earlier work
[14] = test system: L. chagasi; design: method as in PMID 20428679; settings: cited from earlier work
[15] = test system: promastigote stage of L. tropica; design: method as in PMID 37595813; settings: cited from earlier work
[16] = test system: L. amazonensis; design: method as in PMID 28509873; settings: cited from earlier work
[17] = Leishmania amazonensis, 72 h, promastigotes, alamarBlue, 72 h at 26 °C, read-out: L. amazonensis Promastigote IC50
[18] = Trypanosoma cruzi, 72 h, epimastigotes, alamarBlue, 72 h at 26 °C, read-out: T. cruzi Epimastigote IC50
[19] = epimastigotes, alamarBlue, 72 h at 26 °C, read-out: T. cruzi Epimastigote IC50

Row | SMILES | CC50 ([1]; J774.A1 macrophage cell line) | selectivity ratio [2] | IC50 [3, 17] | IC50 [4, 18] | selectivity ratio [5] | also measured
1 | Cc1ccc(C(C)C)c(OC(=O)Oc2ccc([N+](=O)[O-])cc2)c1 [Derivative 11, thymyl-4-nitrophenylcarbonate] | > 300 µM | > 5.2 | 56.9 ± 7.2 µM | 66.9 ± 3.8 µM | > 4.5 | –
2 | Cc1ccc(C(C)C)c(OCC(=O)OC(=O)CCl)c1 [Derivative 4, 2-thymyl-2′-(chloro)-acetic anhydride] | 120.9 ± 0.4 µM | 0.8 | 148 ± 10 µM | 124 ± 6 µM | 0.9 | –
3 | CC(=O)Oc1cc(C)ccc1C(C)C [Derivative 2, thymyl acetate] | – | – | > 350 µM | > 350 µM | – | EC50 against promastigote stage [6]: 9.07 µg/mL; EC50 against amastigote stage [7]: 10.95 µg/mL
4 | Cc1ccc(C(C)C)c(OC(=O)CCC(=O)O)c1 [Derivative 6, thymyl hemisuccinate] | – | – | > 350 µM | > 350 µM | – | –
5 | Cc1ccc(C(C)C)c(OC(=O)N(C)C)c1 [Derivative 12, thymyl N,N-dimethyl carbamate] | – | > 1.3 | – | – | > 1.9 | CC50 ([1]; murine macrophages J774.A1): > 300 µM; IC50 ([3]; Leishmania amazonensis, 72 h, read-out: L. amazonensis Promastigote IC50, promastigotes, alamarBlue, 72 h at 26 °C): 150 to 250 µM; IC50 ([3]; read-out: L. amazonensis Promastigote IC50, promastigotes, alamarBlue, 72 h at 26 °C): 229 ± 21.4 µM; IC50 ([4]; Trypanosoma cruzi, 72 h, read-out: T. cruzi Epimastigote IC50, epimastigotes, alamarBlue, 72 h at 26 °C): 150 to 250 µM; IC50 ([4]; read-out: T. cruzi Epimastigote IC50, epimastigotes, alamarBlue, 72 h at 26 °C): 158 ± 2.9 µM
6 | CCCCCCCCCCCCCCCCOP(=O)([O-])OCC[N+](C)(C)C [M, Miltefosine, reference compound] | 72.2 ± 8.9 µM | 11.1 | 6.5 ± 0.3 µM | – | – | IC50 [8]: 3.1 ± 0.3 µM; selectivity ratio [9]: 23.3
7 | Cc1ccc(C(C)C)c(OC(=O)c2ccccc2)c1 [Derivative 7, thymyl benzoate] | > 300 µM | > 5.4 | 56 ± 5.6 µM | 66 ± 1.7 µM | > 4.5 | EC50 against promastigote stage [6]: 8.67 µg/mL (≈ 34.1 µM); EC50 against amastigote stage [7]: 15.09 µg/mL (≈ 59.3 µM)
8 | Cc1ccc(C(C)C)c(OC(=O)CCl)c1 [Derivative 3, thymyl chloroacetate] | – | > 3.8 | – | – | > 6.1 | CC50 ([1]; murine macrophages J774.A1): > 300 µM; IC50 ([3]; Leishmania amazonensis, promastigotes, alamarBlue, 72 h at 26 °C, read-out: L. amazonensis Promastigote IC50): 78.8 ± 15.9 µM; IC50 ([4]; Trypanosoma cruzi, epimastigotes, alamarBlue, 72 h at 26 °C, read-out: T. cruzi Epimastigote IC50): 49.5 ± 3.2 µM
9 | O=C(Cn1ccnc1[N+](=O)[O-])NCc1ccccc1 [B, Benznidazole, reference compound] | 399.9 ± 1.4 µM | – | – | 6.9 ± 0.8 µM | 58 | selectivity ratio [10]: 148; IC50 [11]: 2.7 ± 0.4 µM
10 | Cc1ccc(C(C)C)c(OC(=O)c2ccc([N+](=O)[O-])cc2)c1 [Derivative 8, thymyl-4-nitrobenzoate] | > 300 µM | > 3.9 | 76.4 ± 6.2 µM | 50 to 150 µM | > 6.8 | IC50 [4, 19]: 44.4 ± 2.5 µM
11 | CCCC(=O)Oc1cc(C)ccc1C(C)C [Derivative 5, thymyl butyrate] | > 300 µM | > 1.4 | 150 to 250 µM | 150 to 250 µM | > 1.4 | IC50 ([3]; promastigotes, alamarBlue, 72 h at 26 °C, read-out: L. amazonensis Promastigote IC50): 216 ± 7.5 µM; IC50 [4, 19]: 211 ± 7.3 µM
12 | Cc1ccc(C(C)C)c(O)c1 [Compound 1, thymol] | > 300 µM | > 0.9 | 318 ± 21.4 µM | 206 ± 2.8 µM | > 1.5 | activity against promastigote stage of L. major [12]: inactive; IC50 against L. infantum [13]: 7.2 µg/mL (≈ 47.9 µM); IC50 against L. chagasi [14]: 28.0 µg/mL (≈ 186 µM); activity against promastigote stage of L. tropica [15]: inactive; IC50 against L. amazonensis [16]: 26.8 µg/mL (≈ 178 µM)
